The values below come from ChEMBL document CHEMBL5465560, “Selectivity Literature for EUbOPEN Chemogenomic Library” (2024).

Molecules are shown by their SMILES.

Assay [1] concerns the target T1, Tyrosine-protein kinase Tec (Homo sapiens) (UniProt P42680).
T1 sequence (whole entry): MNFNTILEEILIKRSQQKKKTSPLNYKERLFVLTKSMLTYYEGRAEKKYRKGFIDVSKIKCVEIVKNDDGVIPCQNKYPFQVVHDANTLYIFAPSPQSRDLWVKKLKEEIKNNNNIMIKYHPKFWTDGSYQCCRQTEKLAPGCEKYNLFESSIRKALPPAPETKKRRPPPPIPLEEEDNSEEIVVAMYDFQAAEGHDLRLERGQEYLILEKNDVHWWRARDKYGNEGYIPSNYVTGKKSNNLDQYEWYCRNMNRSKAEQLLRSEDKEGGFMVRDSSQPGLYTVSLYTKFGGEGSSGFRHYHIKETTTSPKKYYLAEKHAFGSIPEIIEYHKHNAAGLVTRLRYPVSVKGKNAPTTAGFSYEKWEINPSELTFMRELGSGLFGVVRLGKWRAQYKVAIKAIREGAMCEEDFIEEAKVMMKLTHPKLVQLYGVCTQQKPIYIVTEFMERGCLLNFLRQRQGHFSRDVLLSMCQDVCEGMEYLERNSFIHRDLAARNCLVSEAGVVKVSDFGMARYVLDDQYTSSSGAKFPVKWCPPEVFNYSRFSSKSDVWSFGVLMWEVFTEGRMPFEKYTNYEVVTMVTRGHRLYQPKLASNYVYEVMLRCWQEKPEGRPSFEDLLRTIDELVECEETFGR
Nature of the assay: Selectivity interaction (LanthaScreen Eu Kinase Binding Assay) EUB0001632a TEC. The conditions noted are these: at 10 µM. Background: In TR-FRET formats the signal depends on donor and acceptor labels being close together.

Assay [2] addresses T2, 5-hydroxytryptamine receptor 1A (Homo sapiens) (UniProt P08908).
T2 sequence (whole entry): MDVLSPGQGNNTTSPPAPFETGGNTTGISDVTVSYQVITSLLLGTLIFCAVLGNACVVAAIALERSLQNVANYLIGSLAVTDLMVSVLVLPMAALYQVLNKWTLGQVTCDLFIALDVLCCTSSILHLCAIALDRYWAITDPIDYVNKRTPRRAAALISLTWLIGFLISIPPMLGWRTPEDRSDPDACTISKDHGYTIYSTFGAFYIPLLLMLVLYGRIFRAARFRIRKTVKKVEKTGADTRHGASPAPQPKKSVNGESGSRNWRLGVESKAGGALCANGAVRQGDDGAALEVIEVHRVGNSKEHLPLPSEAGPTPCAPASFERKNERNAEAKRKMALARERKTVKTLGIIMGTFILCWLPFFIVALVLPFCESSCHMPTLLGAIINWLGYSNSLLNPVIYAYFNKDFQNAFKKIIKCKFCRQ
The assay can be described thus: Selectivity interaction (Panel of non-epigenetic targets (kinases, GPCRs, ion channels, and transporters, Eurofins) ) EUB0000271b HTR1A. As to conditions: at 1 µM.

Assay [3] deals with T3, Ephrin type-A receptor 1 (Homo sapiens) (UniProt P21709).
T3 sequence (whole entry): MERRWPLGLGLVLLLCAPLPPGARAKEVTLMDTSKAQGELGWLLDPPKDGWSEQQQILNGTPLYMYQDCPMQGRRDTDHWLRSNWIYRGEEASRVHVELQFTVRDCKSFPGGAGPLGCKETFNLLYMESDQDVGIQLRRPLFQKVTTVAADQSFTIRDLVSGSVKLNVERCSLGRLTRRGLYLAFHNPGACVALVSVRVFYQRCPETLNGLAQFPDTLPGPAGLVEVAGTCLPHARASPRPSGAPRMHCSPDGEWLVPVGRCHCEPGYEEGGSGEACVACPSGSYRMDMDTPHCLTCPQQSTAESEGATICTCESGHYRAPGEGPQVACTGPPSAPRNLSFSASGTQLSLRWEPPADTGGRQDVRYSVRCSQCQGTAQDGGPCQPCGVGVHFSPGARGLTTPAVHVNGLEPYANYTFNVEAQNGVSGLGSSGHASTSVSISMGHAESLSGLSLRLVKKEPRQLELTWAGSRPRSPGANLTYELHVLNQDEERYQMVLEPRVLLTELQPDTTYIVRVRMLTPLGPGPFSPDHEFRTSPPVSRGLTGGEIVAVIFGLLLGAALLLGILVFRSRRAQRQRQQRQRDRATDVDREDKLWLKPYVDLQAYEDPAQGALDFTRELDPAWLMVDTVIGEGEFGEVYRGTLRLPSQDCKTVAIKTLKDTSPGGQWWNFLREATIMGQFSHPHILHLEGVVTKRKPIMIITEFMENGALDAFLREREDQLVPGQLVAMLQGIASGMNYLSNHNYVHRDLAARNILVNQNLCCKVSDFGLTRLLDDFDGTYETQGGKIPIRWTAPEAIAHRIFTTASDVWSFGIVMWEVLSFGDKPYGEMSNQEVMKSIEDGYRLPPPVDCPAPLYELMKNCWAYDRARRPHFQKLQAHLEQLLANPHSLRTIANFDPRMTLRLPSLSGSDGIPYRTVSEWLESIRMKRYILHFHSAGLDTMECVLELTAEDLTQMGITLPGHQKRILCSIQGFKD
The assay can be described thus: Selectivity interaction (KinomeScan (DiscoverX)) EUB0000607a EPHA1. The conditions noted are these: at 10 µM.

For assay [4], the target named is Serine/threonine-protein kinase RIO2 (Homo sapiens) (UniProt Q9BVS4). As to conditions: at 10 µM.
Sequence of Serine/threonine-protein kinase RIO2 (Homo sapiens) (Q9BVS4 whole entry, looked up): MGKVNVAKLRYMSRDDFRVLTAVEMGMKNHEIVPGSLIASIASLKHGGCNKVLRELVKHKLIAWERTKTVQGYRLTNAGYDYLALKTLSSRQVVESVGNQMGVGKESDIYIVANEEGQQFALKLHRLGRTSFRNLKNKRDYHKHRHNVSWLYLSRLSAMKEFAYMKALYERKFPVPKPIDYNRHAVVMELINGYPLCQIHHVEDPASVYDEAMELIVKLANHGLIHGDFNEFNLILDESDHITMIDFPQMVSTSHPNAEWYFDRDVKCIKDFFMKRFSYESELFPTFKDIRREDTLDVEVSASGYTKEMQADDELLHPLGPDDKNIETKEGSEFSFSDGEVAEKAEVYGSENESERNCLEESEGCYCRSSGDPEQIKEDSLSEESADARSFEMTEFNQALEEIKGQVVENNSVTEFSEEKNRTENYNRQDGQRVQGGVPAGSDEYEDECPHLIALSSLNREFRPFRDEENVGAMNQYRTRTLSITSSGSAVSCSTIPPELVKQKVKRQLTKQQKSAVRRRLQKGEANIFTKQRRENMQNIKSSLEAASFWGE
Assay [5] addresses Serine/threonine-protein kinase 25 (Homo sapiens) (UniProt O00506). The assay can be described thus: Selectivity interaction (KinomeScan (DiscoverX)) EUB0000229b STK25. As to conditions: at 10 µM.
The target of assay [6] is T4, Serine/threonine-protein kinase 4 (Homo sapiens) (UniProt Q13043).
T4 sequence (whole entry): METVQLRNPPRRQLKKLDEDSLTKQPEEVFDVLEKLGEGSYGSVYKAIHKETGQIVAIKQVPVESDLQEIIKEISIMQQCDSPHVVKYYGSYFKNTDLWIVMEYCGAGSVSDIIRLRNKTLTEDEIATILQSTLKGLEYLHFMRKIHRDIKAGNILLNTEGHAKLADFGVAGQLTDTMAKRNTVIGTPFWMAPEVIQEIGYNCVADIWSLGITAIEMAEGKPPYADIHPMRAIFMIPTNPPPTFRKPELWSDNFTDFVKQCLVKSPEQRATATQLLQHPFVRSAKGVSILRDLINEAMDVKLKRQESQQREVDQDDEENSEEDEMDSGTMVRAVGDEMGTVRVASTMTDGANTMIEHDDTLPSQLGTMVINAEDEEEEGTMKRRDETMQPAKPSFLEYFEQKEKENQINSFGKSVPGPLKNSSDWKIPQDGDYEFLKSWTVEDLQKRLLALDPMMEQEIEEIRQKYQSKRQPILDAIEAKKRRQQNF
The assay can be described thus: Selectivity interaction (KinomeScan (DiscoverX)) EUB0001079a STK4. As to conditions: at 1 µM.

Assay [7] concerns the target Mast/stem cell growth factor receptor Kit (Homo sapiens, UniProt P10721). Nature of the assay: Selectivity interaction (KinomeScan (DiscoverX)) EUB0001079a KIT. As to conditions: at 1 µM.
Assay [8] addresses Receptor tyrosine-protein kinase erbB-2 (Homo sapiens, UniProt P04626). Nature of the assay: Selectivity interaction (ProQinase) EUB0000171b ERBB2.
The target in assay [9] is Insulin-like growth factor 1 receptor (Homo sapiens, UniProt P08069). The assay can be described thus: Selectivity interaction (KinomeScan (DiscoverX)) EUB0000045b IGF1R.
Sequence of Insulin-like growth factor 1 receptor (P08069 31-736 limits assumed): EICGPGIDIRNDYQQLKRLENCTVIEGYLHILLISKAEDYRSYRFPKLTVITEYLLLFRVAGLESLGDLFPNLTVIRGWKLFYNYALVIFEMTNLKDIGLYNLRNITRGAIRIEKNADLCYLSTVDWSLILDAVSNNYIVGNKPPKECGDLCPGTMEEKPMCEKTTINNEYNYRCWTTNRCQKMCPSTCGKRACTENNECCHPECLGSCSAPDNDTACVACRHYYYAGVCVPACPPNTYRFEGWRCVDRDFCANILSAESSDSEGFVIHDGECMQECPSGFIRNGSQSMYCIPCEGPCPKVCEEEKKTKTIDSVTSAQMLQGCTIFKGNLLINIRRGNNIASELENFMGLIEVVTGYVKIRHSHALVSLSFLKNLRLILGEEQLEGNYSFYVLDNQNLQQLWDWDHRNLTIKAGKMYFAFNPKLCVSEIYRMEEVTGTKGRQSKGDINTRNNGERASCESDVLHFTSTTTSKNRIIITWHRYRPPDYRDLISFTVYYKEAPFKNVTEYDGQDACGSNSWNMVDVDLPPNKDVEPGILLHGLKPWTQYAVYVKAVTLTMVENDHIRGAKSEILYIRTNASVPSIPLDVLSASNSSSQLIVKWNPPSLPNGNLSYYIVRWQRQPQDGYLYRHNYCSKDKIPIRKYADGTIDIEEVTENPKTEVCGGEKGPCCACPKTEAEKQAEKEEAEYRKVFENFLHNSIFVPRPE
Sequence of Insulin-like growth factor 1 receptor (P08069 741-1367 limits assumed): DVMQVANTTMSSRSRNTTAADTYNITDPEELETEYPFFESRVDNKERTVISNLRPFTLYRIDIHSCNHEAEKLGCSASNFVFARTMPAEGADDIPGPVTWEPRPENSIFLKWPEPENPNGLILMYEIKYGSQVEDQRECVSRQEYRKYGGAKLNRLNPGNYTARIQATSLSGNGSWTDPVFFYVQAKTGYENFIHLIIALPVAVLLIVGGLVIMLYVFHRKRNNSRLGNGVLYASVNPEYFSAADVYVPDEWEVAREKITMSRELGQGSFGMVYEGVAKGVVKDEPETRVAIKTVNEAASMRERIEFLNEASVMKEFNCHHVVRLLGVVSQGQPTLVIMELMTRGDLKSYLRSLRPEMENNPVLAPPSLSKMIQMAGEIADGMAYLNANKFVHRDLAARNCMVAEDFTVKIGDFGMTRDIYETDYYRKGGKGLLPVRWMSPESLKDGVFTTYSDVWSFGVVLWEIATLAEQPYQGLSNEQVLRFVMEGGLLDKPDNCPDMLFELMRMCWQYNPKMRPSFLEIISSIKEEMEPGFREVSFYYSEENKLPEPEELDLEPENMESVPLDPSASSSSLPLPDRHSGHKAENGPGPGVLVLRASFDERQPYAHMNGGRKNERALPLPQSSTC

Sequence of Receptor tyrosine-protein kinase erbB-2 (P04626 whole entry): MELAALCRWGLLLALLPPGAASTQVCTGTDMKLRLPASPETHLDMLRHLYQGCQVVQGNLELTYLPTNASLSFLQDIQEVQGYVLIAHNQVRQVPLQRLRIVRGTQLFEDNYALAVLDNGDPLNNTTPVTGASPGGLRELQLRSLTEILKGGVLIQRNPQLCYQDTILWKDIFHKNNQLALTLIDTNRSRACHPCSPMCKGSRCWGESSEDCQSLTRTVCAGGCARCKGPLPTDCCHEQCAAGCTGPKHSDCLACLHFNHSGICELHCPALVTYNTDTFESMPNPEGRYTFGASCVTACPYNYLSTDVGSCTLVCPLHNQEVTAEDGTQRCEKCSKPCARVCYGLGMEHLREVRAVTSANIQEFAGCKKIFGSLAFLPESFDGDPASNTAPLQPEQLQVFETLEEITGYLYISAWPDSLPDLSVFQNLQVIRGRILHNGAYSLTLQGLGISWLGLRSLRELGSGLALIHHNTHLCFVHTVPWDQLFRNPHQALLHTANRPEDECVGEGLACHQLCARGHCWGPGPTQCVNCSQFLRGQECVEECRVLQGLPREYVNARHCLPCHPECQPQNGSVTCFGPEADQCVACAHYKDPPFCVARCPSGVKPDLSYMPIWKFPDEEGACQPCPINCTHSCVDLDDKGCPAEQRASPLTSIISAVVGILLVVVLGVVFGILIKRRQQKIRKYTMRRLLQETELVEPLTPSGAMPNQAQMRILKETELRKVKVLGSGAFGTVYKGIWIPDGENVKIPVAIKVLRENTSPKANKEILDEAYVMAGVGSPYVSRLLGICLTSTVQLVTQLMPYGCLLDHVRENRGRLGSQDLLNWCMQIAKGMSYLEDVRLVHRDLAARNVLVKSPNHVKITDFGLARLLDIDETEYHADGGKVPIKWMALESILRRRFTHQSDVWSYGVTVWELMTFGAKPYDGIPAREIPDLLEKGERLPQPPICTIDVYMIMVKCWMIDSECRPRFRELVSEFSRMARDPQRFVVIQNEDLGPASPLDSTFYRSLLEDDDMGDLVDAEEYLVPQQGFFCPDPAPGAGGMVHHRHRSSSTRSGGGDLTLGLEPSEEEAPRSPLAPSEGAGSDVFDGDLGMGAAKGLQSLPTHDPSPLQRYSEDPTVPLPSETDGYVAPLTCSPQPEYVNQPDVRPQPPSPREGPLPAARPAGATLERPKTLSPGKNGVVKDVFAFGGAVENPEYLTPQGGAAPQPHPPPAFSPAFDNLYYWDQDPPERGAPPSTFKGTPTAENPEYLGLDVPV
Sequence of Mast/stem cell growth factor receptor Kit (P10721 whole entry): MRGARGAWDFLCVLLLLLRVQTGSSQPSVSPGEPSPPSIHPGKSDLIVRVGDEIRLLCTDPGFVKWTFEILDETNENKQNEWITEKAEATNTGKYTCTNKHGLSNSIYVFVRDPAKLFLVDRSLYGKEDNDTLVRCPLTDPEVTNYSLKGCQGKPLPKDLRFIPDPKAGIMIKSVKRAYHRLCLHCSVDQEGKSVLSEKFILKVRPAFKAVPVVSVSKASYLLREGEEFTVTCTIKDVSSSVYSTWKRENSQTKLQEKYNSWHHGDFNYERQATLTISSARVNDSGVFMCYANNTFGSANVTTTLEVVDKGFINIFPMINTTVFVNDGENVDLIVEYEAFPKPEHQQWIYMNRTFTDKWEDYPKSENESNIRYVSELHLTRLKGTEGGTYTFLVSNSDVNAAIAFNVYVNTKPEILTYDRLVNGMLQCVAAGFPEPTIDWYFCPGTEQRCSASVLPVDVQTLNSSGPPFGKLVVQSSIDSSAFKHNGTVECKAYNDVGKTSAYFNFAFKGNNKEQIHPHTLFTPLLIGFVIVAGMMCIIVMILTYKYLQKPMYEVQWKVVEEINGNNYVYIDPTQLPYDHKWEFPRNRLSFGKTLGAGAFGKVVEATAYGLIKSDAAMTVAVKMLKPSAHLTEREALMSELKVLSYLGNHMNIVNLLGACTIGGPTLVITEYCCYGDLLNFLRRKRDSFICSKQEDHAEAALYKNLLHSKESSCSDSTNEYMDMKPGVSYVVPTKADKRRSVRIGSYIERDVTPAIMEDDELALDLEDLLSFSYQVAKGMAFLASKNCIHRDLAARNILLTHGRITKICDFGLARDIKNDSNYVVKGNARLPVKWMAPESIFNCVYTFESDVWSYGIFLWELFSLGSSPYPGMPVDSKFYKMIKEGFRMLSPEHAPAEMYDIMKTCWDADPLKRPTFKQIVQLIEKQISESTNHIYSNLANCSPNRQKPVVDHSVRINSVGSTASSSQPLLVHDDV
Sequence of Serine/threonine-protein kinase 25 (Homo sapiens) (O00506 whole entry, looked up): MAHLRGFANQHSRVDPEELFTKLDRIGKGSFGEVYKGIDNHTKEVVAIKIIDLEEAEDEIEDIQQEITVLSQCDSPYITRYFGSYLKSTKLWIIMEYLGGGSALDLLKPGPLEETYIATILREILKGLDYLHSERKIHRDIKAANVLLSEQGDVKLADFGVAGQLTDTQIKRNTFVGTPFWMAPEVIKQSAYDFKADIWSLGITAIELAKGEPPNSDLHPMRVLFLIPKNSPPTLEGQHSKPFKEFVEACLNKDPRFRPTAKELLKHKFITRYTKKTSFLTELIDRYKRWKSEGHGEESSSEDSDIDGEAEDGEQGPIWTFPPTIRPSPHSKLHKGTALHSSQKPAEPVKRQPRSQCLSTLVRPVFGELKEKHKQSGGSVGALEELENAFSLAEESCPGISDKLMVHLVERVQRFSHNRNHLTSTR

With `Cn1cc(-n2cnc3c(NCc4nc5cc(Cl)c(Cl)cc5[nH]4)nc(N4CCOCC4)nc32)cn1`, the % of inhibition in [1] was -15.6%.

Turning to `Cc1cc(C)cc([C@@H]2c3cc(C)ccc3NC(=O)CN2C(=O)c2ccc(Br)s2)c1`, the % of inhibition in assay [2] was 5%. `CNC(=O)Nc1ccc(-c2nc(N3CC4CCC(C3)O4)c3cnn(C4CCC5(CC4)OCCO5)c3n2)cc1`: the % of control in assay [3] came out at 81%. In assay [4], `Cc1cc([C@@H](C)Nc2ccccc2C(=O)O)c2nc(N3CCOCC3)cc(=O)n2c1` [AZD-6482] came in with a % of control of 54%. For `COc1cc(N(C)c2ccnc3ccc(C(F)(F)F)cc23)cc(OC)c1OC`, in assay [5], the % binding worked out at 88%.

Turning to `Nc1cnc(N2CCc3cc(S(=O)(=O)Nc4c(F)cc(Cl)cc4F)cc(N4CCCC4=O)c32)nc1` [TP-020n], the % of control in assay [6] and in assay [7] was 100% each time. As to `C=CC(=O)Nc1cccc(C(=O)Nc2ccc(Nc3cc(-c4[nH]c(SC)nc4C)ccn3)cc2)c1`, the % of control in assay [8] (at 1 µM) came to 92%; in [8] (at 5 µM), 94%.

Consider `C=CC(=O)Nc1cc(-n2c(=O)ccc3cnc4ccc(-c5ccc(NS(C)(=O)=O)cc5)cc4c32)ccc1C`, for which the % of control in assay [9] (at 1 µM) came out at 100%; in assay [9] (at 10 µM), 80%.
